Assay [1] deals with T1, PAGFP-Tau / PAGFP-TauΔK280 (Homo sapiens, UniProt P10636, DEL125-375/DEL395-460/DEL597-597).
T1 construct: gene MAPT
As to the kind of experiment: FDAP live-cell imaging, effective diffusion constant of tau (restored microtubule binding). It counts as cell-based. The text has this: FDAP live-cell imaging, effective diffusion constant of tau (restored microtubule binding) on PAGFP-Tau / PAGFP-TauΔK280 | IC50 value of the activity of PHOX15 to restore microtubule binding of TauΔK280, obtaining

Assay [2] concerns the target T2, Tau (recombinant human tau, Tau441wt) (Homo sapiens, UniProt P10636).
T2 construct: gene MAPT; full-length Tau441, pET-3d, E. coli BL21(DE3)pLysS; anion exchange and phosphocellulose chromatography
As to the kind of experiment: heparin-induced aggregation, ultracentrifugation sedimentation assay. Conditions: 20 µM PHOX15 (significant, p = 0.0494), 24 h, 37 °C, pH 7.4, 200 µg/ml heparin, 1% DMSO. It counts as biochemical.

In assay [3] the target is T3, Tau (recombinant human tau, Tau441wt) (Homo sapiens, UniProt P10636, DEL125-375/DEL395-460/DEL597-597).
T3 construct: gene MAPT; full-length Tau441, pET-3d, E. coli BL21(DE3)pLysS; anion exchange and phosphocellulose chromatography
T3 sequence (P10636 with tags, fused parts or gaps DEL125-375/DEL395-460/DEL597-597): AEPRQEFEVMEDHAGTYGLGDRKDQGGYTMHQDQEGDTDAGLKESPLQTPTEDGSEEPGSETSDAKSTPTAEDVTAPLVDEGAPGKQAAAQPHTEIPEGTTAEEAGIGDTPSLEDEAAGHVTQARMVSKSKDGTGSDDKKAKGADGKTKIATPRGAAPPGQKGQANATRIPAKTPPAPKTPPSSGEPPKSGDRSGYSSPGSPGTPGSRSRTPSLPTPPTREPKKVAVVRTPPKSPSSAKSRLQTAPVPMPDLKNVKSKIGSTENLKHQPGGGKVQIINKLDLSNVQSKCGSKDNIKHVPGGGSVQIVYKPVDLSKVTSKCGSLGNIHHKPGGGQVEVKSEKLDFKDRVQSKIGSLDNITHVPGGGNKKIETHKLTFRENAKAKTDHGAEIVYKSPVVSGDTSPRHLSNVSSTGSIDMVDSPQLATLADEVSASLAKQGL
Described as above. Conditions: 2-20 µM PHOX15, 24 h, 37 °C, pH 7.4, 200 µg/ml heparin, 1% DMSO. It counts as biochemical.

T2 sequence (P10636 1-441 isoform P10636-8): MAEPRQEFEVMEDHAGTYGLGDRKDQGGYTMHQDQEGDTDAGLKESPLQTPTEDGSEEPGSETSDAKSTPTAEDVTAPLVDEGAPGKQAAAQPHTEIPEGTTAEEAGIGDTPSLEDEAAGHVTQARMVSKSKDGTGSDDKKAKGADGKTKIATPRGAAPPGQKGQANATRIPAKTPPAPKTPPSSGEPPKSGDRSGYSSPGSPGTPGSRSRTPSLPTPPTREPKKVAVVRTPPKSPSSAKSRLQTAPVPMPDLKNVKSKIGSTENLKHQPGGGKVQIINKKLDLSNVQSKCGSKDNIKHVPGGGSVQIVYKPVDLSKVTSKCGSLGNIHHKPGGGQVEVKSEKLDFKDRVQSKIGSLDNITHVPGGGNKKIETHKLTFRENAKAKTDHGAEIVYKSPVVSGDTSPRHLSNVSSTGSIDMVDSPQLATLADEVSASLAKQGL
T1 sequence (P10636 with tags, fused parts or gaps DEL125-375/DEL395-460/DEL597-597): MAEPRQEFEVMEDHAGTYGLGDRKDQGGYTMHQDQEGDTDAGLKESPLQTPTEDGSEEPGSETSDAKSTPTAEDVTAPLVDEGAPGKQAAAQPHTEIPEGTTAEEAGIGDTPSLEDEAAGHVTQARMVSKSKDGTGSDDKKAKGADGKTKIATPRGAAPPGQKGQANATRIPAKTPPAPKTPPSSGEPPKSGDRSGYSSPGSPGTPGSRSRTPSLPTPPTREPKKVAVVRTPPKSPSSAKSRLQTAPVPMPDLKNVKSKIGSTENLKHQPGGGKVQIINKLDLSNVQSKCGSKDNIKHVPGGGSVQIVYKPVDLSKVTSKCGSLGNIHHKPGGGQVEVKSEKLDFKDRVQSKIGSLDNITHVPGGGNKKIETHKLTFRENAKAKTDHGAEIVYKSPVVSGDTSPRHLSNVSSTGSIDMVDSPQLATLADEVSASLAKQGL

`O=C(Nc1ccccc1)c1coc(-c2ccc(O)cc2O)n1` [PHOX15, 2-(2,4-dihydroxyphenyl)-N-phenyloxazole-4-carboxamide] had an IC50 in assay [1] of 14 µM. Moreover, the “fraction of aggregated tau” value in assay [2] was “PHOX15 decreases aggregation of recombinant TauΔK280 and human wild-type tau (Tau) in vitro”. The “% reduction of filament formation” value in assay [3] is given as ~ 20%.
